One data set relates to HepG2. To be noted: read-out: IC50 cytotoxic activity, HepG2; HepG2 cell line; cited from earlier work.
For another data set, the system named is BEL-7402. To be noted: read-out: IC50 cytotoxic activity, BEL-7402; BEL-7402 cell line; cited from earlier work.
The next data set addresses T1, LmDHFR-TS (Leishmania major, UniProt P07382).
T1 construct: made in house
Briefly: LmDHFR-TS enzymatic inhibition assay (spectrophotometric standard DHFR assay). The data set is classed as biochemical. The settings on record: for SI (selectivity index): HsDHFR versus LmDHFR-TS. Here is the method:
The determination of IC50 values involved analyzing concentration-response curves within the 0.1–128 μM range, employing spectrophotometric monitoring of enzymatic activity in a standard DHFR assay.
(§1) Purification and kinetic characterization of the recombinant LmDHFR-TS protein were performed according to the previously reported procedures, while HsDHFR protein was obtained from the commercial assay kit (CS0340, Merck KGaA, Darmstadt, Germany). […] These tested compounds were available from our in-house compound library.
(§2) The assay was conducted with either LmDHFR-TS or HsDHFR (2.7 nM), bovine serum albumin (BSA, 1 mg/mL), N-[tris(hydroxymethyl)-methyl]-2-aminoethanesulfonic acid (TES) buffer (100 mM, pH 7.0, 150 mM β-mercaptoethanol, 2 mM ethylenediaminetetraacetic acid (EDTA)), and nicotinamide adenine dinucleotide phosphate (NADPH, 100 μM), along with varying concentrations of the test compounds (0.1–128 μM). The reaction was initiated by adding the substrate (7,8-dihydrofolate (H2F), 20 μM) and monitored for 360 s at 340 nm, measuring the oxidation of NADPH to NADP+. This allowed the determination of the initial reaction rate (Vo) through linear regression analysis of the resulting absorbance profile.

The target in the next data set is T2, HsDHFR (Homo sapiens, UniProt P00374).
T2 construct: purchased Merck KGaA CS0340
T2 sequence (P00374 1-187): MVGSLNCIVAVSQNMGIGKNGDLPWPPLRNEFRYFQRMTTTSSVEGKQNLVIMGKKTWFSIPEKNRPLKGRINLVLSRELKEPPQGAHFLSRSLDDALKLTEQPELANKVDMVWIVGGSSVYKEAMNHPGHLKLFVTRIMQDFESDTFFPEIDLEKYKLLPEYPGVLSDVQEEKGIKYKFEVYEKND
Nature of the data set: HsDHFR enzymatic inhibition assay (spectrophotometric standard DHFR assay). The data set is classed as biochemical. Here is the method:
Following this, we calculated the selectivity index (SI) based on the results obtained from in vitro tests using the recombinant protein of Homo sapiens (Hs) DHFR.
as §1, §2

The subject of another data set is Leishmania amastigotes. Also on record: method as in earlier work. To be noted: ref 24 (Gouri et al.); read-out: IC50 against Leishmania amastigotes; cited from earlier work.
The next data set deals with TNBC cells. To be noted: read-out: IC50, TNBC cells in vitro; FAK inhibitor; proliferation, invasion, migration; cited from earlier work.
[1] abbreviates: recombinant LmDHFR-TS 2.7 nM, 0.1–128 μM test range, triplicate.
Where [2] appears, read: HsDHFR 2.7 nM, 0.1–128 μM test range, triplicate, read-out: HsDHFR IC50.

The structures appear in SMILES notation. Where two headings read alike, the source gives them in different places.

The text below walks through data of publication PMC10779987, “Machine-Learning- and Structure-Based Virtual Screening for Selecting Cinnamic Acid Derivatives as Leishmania major DHFR-TS Inhibitors” (Molecules, 2023).

T1 sequence (P07382 whole entry): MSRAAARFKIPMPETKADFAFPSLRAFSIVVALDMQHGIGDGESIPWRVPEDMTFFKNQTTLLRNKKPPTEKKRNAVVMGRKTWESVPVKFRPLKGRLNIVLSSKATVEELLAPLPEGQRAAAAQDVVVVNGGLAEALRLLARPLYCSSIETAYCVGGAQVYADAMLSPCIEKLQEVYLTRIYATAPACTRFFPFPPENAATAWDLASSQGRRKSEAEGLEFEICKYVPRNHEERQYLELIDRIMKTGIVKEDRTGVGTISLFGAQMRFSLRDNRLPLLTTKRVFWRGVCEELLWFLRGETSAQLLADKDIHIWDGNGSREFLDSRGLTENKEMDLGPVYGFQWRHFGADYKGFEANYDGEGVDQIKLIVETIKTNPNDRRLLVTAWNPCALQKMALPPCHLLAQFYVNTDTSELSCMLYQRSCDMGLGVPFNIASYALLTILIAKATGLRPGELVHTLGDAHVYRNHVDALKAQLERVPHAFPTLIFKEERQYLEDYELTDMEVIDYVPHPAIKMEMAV

For `C[C@H]1CCC/C=C/[C@@H]2C[C@H](O)C[C@H]2[C@H](OC(=O)/C=C/c2ccc(N(C)C)cc2)/C=C/C(=O)O1` [brefeldin A 4-O-(4)-dimethylaminocinnamate], the half-maximal inhibitory concentration (IC50) (usually the point on the concentration scale where inhibition reaches its midpoint) is 0.29 µM in the data set with HepG2 and 0.84 µM in the data set on BEL-7402.
Regarding `COc1ccc([C@@H]2CC(=O)c3c(O)cc(O[C@@H]4O[C@H](CO[C@@H]5O[C@@H](C)[C@H](O)[C@@H](O)[C@H]5O)[C@@H](O)[C@H](O)[C@H]4O)cc3O2)cc1O` [Compound 140, hesperidin], at LmDHFR-TS, 21.6 µM corresponded to half-maximal inhibition (IC50) and the “SI (selectivity index)” value stood at 4.0. Further, the “LmDHFR-TS IC50” value on LmDHFR-TS (setting [1]) is “low activity”. The same molecule came in with an IC50 on HsDHFR of 86.5 µM.
As to `COc1cc(C[C@H]2COC(=O)[C@@H]2Cc2cc(OC)c3c(c2)[C@H](CO)[C@@H](c2ccc(O)c(OC)c2)O3)ccc1O` [Compound 308, isolappaol A], the IC50 against LmDHFR-TS is 10.1 µM; on HsDHFR (setting [2]) it was 44.8 µM.
In the case of `O=c1cc(-c2ccc(O[C@@H]3O[C@H](CO)[C@@H](O)[C@H](O)[C@H]3O)cc2)oc2cc(O)c([C@@H]3O[C@H](CO)[C@@H](O)[C@H](O)[C@H]3O)c(O)c12` [isovitexin 4′-O-glucoside], the “SI (selectivity index)” value on LmDHFR-TS turned out to be 2.4. On LmDHFR-TS (setting [1]), the “LmDHFR-TS IC50” value is recorded as “low activity”. Further, the IC50 worked out at 53.2 µM on LmDHFR-TS (recombinant LmDHFR-TS 2.7 nM, 0.1–128 μM test range, triplicate, read-out: LmDHFR-TS IC50) and 126 µM at HsDHFR (setting [2]).
For `O=C(/C=C/c1ccc(O)c2c1[C@H](C(=O)O)[C@@H](c1ccc(O)c(O)c1)O2)O[C@H](Cc1ccc(O)c(O)c1)C(=O)O` [Compound 237, lithospermic acid], the results for the IC50 on LmDHFR-TS and on HsDHFR (setting [2]) were 7.5 µM and 22.6 µM, respectively.
Regarding `COc1ccc(C[C@H]2COC(=O)[C@@H]2Cc2cc(OC)c(O)c(-c3cc(C[C@H]4C(=O)OC[C@@H]4Cc4ccc(OC)c(OC)c4)cc(OC)c3O)c2)cc1OC` [Compound 306, diarctigenin], the results for the IC50 against LmDHFR-TS and on HsDHFR (setting [2]) were 6.1 µM and 27.9 µM, respectively.
In the case of `O=C(O)/C=C/c1ccccc1` [cinnamic acid], the IC50 in the data set on Leishmania amastigotes is 0.25 µM.
`O=c1cc(-c2ccccc2)oc2cc(O)cc(O)c12` [Compound 69, chrysin]: the IC50 with Leishmania amastigotes was 13 µM.
As for `C[C@@H]1O[C@@H](OC[C@H]2O[C@@H](Oc3c(-c4ccc(O)c(O)c4)oc4cc(O)cc(O)c4c3=O)[C@H](O)[C@@H](O)[C@@H]2O)[C@H](O)[C@H](O)[C@H]1O` [rutin], on LmDHFR-TS, the concentration for half-maximal inhibition (IC50) is 41.7 µM and the “SI (selectivity index)” value was found to be 4.5. Besides, the “LmDHFR-TS IC50” value at LmDHFR-TS (setting [1]) is “low activity”. Besides, on HsDHFR (setting [2]), the IC50 was found to be 189 µM.
As to `C=CC(C)(C)c1cc(/C=C/C(=O)c2ccc(O)cc2)c(OC)cc1O` [licochalcone A], the IC50 in the data set on Leishmania amastigotes was 0.9 µM.
Regarding `O=c1c(O)c(-c2ccc(O)c(O)c2)oc2cc(O)cc(O)c12` [quercetin], in the data set on Leishmania amastigotes, the half-inhibitory concentration (IC50) is 10.5 µM.
As for `CN(C)CCN(C(=O)/C=C/c1c[nH]c2ccccc12)c1ccccn1` [(E)-N-(2-(dimethylamino)ethyl)-3-(1H-indol-3-yl)-N-(pyridin-2-yl) acrylamide], in the data set on TNBC cells, the IC50 is 8.37 µM.
On to `O=c1cc(-c2ccc(O)c(O)c2)oc2cc(O)cc(O)c12` [luteolin], for which the half-maximal inhibitory concentration (IC50) in the data set on Leishmania amastigotes is 3.12 µM.
